Laboratory results: patent US20240316012A1, “METHODS FOR TREATING LYMPHOMA” (Northwestern University, priority 2023, published 2024)

Experiments:
[1] = test system: PD-1 wild-type tumors (primary CTCL); experiment: Inhibitor treatment of human cells in vitro, division index, PD-1 wild-type CTCL cells; format: cell-based; conditions: 2-DG 1 mM, everolimus 0.1 μM, BMS-303141 10 μM; 6 days; FIG. 7E
Experimental: (§1) FIGS. 7A-7H show ACLY dependency and AP-1 activation in human PDCD1 defective T-NHL. […] CNA, copy number aberrations. FIG. 7B GSEA for the indicated gene sets based on RNA-seq data from the 21 CTCL patients shown in (a). NES, normalized enrichment score; FDR, false discovery rate. […] P=one-way ANOVA and two-sided Student's t-test. Shown are the mean±SD and individual data points. […] FACS-sorted malignant cells were stimulated with anti-CD3/anti-CD28 beads, and 2-NBDG uptake was determined at the indicated time points. P=two-sided Student's t-test. Shown are the mean±SEM and individual data points. […] CFSE, carboxyfluorescein succinimidyl ester. P=two-sided Student's t-test. The data are presented as the mean±SEM and individual data points. […] Legend as in (5a). […] FIG. 7H GSEA for the indicated gene sets with RNA-seq data from 21 CTCL PDCD1mut” or “PDCD1 wt, and three patients with hyperprogression. NES, normalized enrichment score; FDR, false discovery rate. FIGS. 7A and 7B, Data from a single experiment with 21 patients. FIGS. 7C and 7D, Data from one experiment with three patients per group and three healthy donors. FIG. 7E, Data from one experiment with three patients and three healthy donors. FIGS. 7F and 7G, Data from one experiment with three patients per group. FIG. 7H, Data from a single experiment.
(§2) Isolation of primary human CTCL cells. This study was approved by the Northwestern University Institutional Review Board. Patients provided informed consent for inclusion in the study. […] The tumor burden for each patient was determined using well-validated clinical markers, taking whichever value was higher between Sezary cell counts or the CD26 negative cell number by clinical flow cytometry. These were analyzed in conjunction with white blood cell and absolute lymphocyte counts.
(§3) Inhibitor treatment of human cells in vitro Malignant CTCL cells and CD4^+ T cells from healthy donors were isolated as previously described. […] After 6 days, the cells were analyzed by flow cytometry, and the division index was determined using the FlowJo proliferation tool (v10.6, FlowJo LLC).

[2] = test system: PDCD1-mutant lymphoma cells (primary CTCL); experiment: Inhibitor treatment of human cells in vitro, division index, PDCD1-mutant CTCL cells; format: cell-based; conditions: 2-DG 1 mM, everolimus 0.1 μM, BMS-303141 10 μM; anti-CD3/anti-CD28 beads, 6 days; FIG. 7E
Experimental: as §1, §2, §3

SMILES | response of stage-matched PD-1 wild-type tumors (relative division index) [1] | viability, division and proliferation of PDCD1-mutant cancer cells (relative division index) [2]
O=CC[C@@H](O)[C@H](O)[C@H](O)CO [2-DG, 2-deoxy-D-glucose] | resistant | significantly impaired cell proliferation
COc1ccc(-c2ccccc2)cc1NS(=O)(=O)c1cc(Cl)cc(Cl)c1O [BMS-303141] | resistant | significantly impaired cell proliferation
